The values below are quoted from earlier work in publication PMC12156181, “Antitrypanosomal and Antileishmanial Activities of Tacca leontopetaloides Tubers and Zanthoxylum zanthoxyloides Stem Bark” (Molecules, 2025).

SMILES strings stand for the structures.

In this data set the test system is T. b. brucei s427. On the set-up: method as in earlier work. Particulars: cited from earlier work.

Turning to `COc1ccc2c(c1OC)C(CC(C)=O)N(C)c1c-2ccc2cc3c(cc12)OCO3` (stereo not shown) [6-Acetonyl-5,6-dihydrochelerythrine], the “activity against T. b. brucei s427” value is “no significant activity”.
